Assay [1] is described as follows: Cytotoxicity against mouse P388D1 cells after 48 hrs by MTT assay. The class given is functional, cell-based. To be noted: P388D1, 48 h.
Assay [2] relates to DNA. The assay can be described thus: Binding affinity to calf thymus DNA assessed as Scatchard binding constant by fluorescence quenching technique. The assay is classed as nucleic-acid assay. To be noted: Bos taurus.
In a further assay the test system is HeLa. The assay can be described thus: Cytotoxicity against human HeLa cells after 48 hrs by MTT assay. The class given is functional, cell-based.
The subject of assay [3] is DNA. The assay can be described thus: Binding affinity to calf thymus DNA assessed as hypochromicity at 50 uM by UV-vis absorption spectra. The class given is nucleic-acid assay. To be noted: Bos taurus.
Assay [4] relates to DNA. The assay can be described thus: Binding affinity to calf thymus DNA assessed as increase in viscosity of DNA by viscometric titration. The class given is nucleic-acid assay. The following applies: Bos taurus.
For assay [5], the system named is DNA. The assay can be described thus: Binding affinity to calf thymus DNA assessed as circular dichroism at 10 uM. The assay is classed as nucleic-acid assay. The following applies: Bos taurus. A general note: CD spectra are sensitive to the conformation of chiral molecules.

The source made the active and inactive calls. No cut-off for these calls is given here.

As a reminder, the IC50 is the midpoint of a concentration-inhibition curve. For the compound `CN(C)CCN1C(=O)c2cccc3cc(N)cc(c23)C1=O` [AMONAFIDE], the IC50 in assay [1] was determined as 6.02 µM; in the assay with HeLa, 680 nM. Besides, the Kb with DNA [2] worked out at 1.05 ×10⁵ /M.
For `CN(C)CCN1C(=O)c2cccc3cc(N4CCOCC4)cc(c23)C1=O`, in that order: 9.44 µM, 530 nM and 0.97 ×10⁵ /M.
Take `CN(C)CCN1C(=O)c2cccc3cc(N4CCSCC4)cc(c23)C1=O`: the results for the IC50 (in assay [1]; in the assay with HeLa) were 36.3 µM and 2340 nM, respectively. Further, the Kb in the assay on DNA [2] is 0.79 ×10⁵ /M.
`CN(C)CCNc1cc2c3c(cccc3c1)C(=O)N(CCN(C)C)C2=O`: the 50% inhibitory concentration (IC50) was found to be 0.62 µM in assay [1] and 830 nM with HeLa. Further, the outcome with DNA [3], in the assay on DNA [4] and with DNA [5] was Active. Besides, the Kb in the assay on DNA [2] was found to be 1.85 ×10⁵ /M.
`CN(C)CCCNc1cc2c3c(cccc3c1)C(=O)N(CCN(C)C)C2=O`: the IC50 in assay [1] is 0.71 µM; with HeLa, 230 nM. Further, in the assay on DNA [2], the Kb worked out at 1.75 ×10⁵ /M.
Taken in the same sequence, the figures for `CN(C)CCN1C(=O)c2cccc3cc(NCc4cccs4)cc(c23)C1=O` were 9.46 µM, 3540 nM and 1.06 ×10⁵ /M.
Take `CCCCNc1cc2c3c(cccc3c1)C(=O)N(CCN(C)C)C2=O`: the IC50 in assay [1] is 9.42 µM; in the assay on HeLa, 3240 nM. Besides, in the assay with DNA [2], the Kb was 1.23 ×10⁵ /M.
Regarding `CN(C)CCN1C(=O)c2cccc3cc(N4CCCCC4)cc(c23)C1=O`, the half-inhibitory concentration (IC50) in assay [1] was 21.6 µM; with HeLa, 2640 nM. Further, the Kb in the assay on DNA [2] was found to be 0.85 ×10⁵ /M.
Consider `CN(C)CCN1C(=O)c2cccc3cc(N4CCN(C)CC4)cc(c23)C1=O`, for which the IC50 in assay [1] was 1.93 µM; in the assay on HeLa, 430 nM. The result in the assay with DNA [3], in the assay with DNA [4] and with DNA [5] was Active. The Kb in the assay with DNA [2] turned out to be 2.48 ×10⁵ /M.

The values above are taken from ChEMBL document CHEMBL1140851, “Synthesis of new amonafide analogues via coupling reaction and their cytotoxic evaluation and DNA-binding studies” (Bioorg Med Chem, 2009).
